Measured values from US20110044929A1, “FORMULATIONS AND METHODS FOR TREATMENT OF INFLAMMATORY DISEASES” (Vical Incorporated, priority 2004, published 2011).
Like-named read-outs stand apart in the source and are kept apart here.

Key:
HUVEC cells = assay: Adenosine release from HUVEC by liquid chromatography; format: cell-based, human; conditions: over time, normoxic and hypoxic
Procedure: For this reason, studies were undertaken to determine the effect of certain poloxamers in vitro in human vascular endothelial cells (HUVEC) and human skeletal muscle myoblast (HSMM) cells under normoxic and hypoxic (5% O2) conditions. Production of adenosine, cytokines, growth factors, or a combination of these biologically relevant molecules was measured after exposure to either poloxamer-188 (˜BASF Pluronic F-68), poloxamer-235 (˜BASF Pluronic P85), cilostazol, Del-1 protein, or medium alone. Monitoring for generation of adenosine was conducted by HPLC. […] This increased level of adenosine was seen over time in both hypoxic and normoxic cells exposed to poloxamer-235.
HUVEC and HSMM cells are harvested after fourth population doubling from the time of purchase by trypsinization. The cells are suspended in appropriate complete medium and plated in a 60×15 culture dishes at the density of […] per well and incubated for 24 hrs. The cells are fed with EBM (HUVEC cells) and SkBM (HSMM cells) culture medium containing 0.5% FCS for 24 hrs to growth-arrest the cells. […]

[1] = tested on: patients with intermittent claudication; conditions: cited from earlier work
[2] = tested on: patients with intermittent claudication; conditions: Lederman et al. 2002; cited from earlier work
CD-1 mice = assay: Murine hindlimb ischemia model; format: in vivo, mouse; conditions: repeated intramuscular injections
Description: A gene-based approach to Del-1 delivery using a plasmid vector was developed for the purpose of enhancing relatively sustained local concentrations with a consequent reduction in systemic exposure to the angiogenic growth factor while at the same time avoiding known adverse effects that may arise with the use of a viral platform.
Results from preclinical studies with recombinant murine Del-1 protein and with formulated Del-1 plasmid compared favorably to results obtained with bFGF and VEGF165. In-house research provided for selection of the non-ionic polymer poloxamer 188 as an important constituent for a pharmaceutical formulation of the Del-1 gene encoded on plasmid DNA. The poloxamer formulation was developed after considerable research to provide for a compound that would give increased expression over DNA in saline.
The effects of formulated hDel-1 plasmid versus formulated VEGF165 plasmid and empty plasmid were investigated in a murine hindlimb ischemia model. Bilateral ischemia was induced in hindlimbs of CD-1 mice by ligation of the femoral artery. A control group underwent sham surgery without femoral artery ligation. […] Exercise tolerance was then determined at weekly intervals through four weeks post surgery.

mice = assay: Subcutaneous Matrigel implant model; format: in vivo, mouse
Description: Poloxamer Inhibition of Inflammation in Murine Study: Initial studies incorporating either FGF (positive control), saline (negative control), Del-1 protein (another known angiogenic agent) or poloxamer-188 into Matrigel that was placed subcutaneously into the lower abdomen of mice yielded interesting results. Matrigel Basement Membrane Matrix (BD Biosciences) is a solubilized basement membrane preparation extracted from the Engelbreth-Holm-Swarm (EHS) mouse sarcoma. Its major component is laminin, followed by collagen IV, heparan sulfate proteoglycans, entactin and nidogen. In the Matrigel angiogenesis model, poloxamer-188 was compared to other known angiogenic agents such as fibroblast growth factor (FGF, positive control), Del-1 protein, or saline as a negative control.
After gaining experience with the system, it was felt that the quantity of Del-1 used should be titrated to see if a dose response with the protein could be distinguished, and to alter the ratio of P188 to matrigel. In the first round of studies it was noted that the 5% P188 concentration added to the Matrigel appeared to inhibit polymerization of the Matrigel. […] Therefore, in the repeat in vivo experiment the Matrigel and poloxamer concentrations were altered such that the initial concentrations were similar to those that yielded good polymerization, but still gave a final concentration of 5% P188 (the concentration tested in clinical trials).
Matrigel implants were placed subcutaneously in the lower abdominal/inguinal region of mice and harvested 4 to 7 days later.

| Molecule | adenosine in the supernatant (HUVEC cells) | peak walking time ([1]; 100 mg twice/day) | observed difference in change in PWT versus placebo ([1]; Dawson et al. 1998) [min] | side effects (headaches, palpitations, gastrointestinal disturbances) ([1]; clinical trials) | observed difference in change in PWT versus placebo [2] [min] | vascular perfusion (CD-1 mice) | cellular response of Matrigel implant (mice; Del-1 less than 200 ugs/ml) | vessel growth in Matrigel angiogenesis model (mice; first round of studies) | morphologic pattern of Matrigel implant (cellularity) (mice; harvested 4 to 7 days, H&E, Del-1 at 200 ug/ml) |
| --- | --- | --- | --- | --- | --- | --- | --- | --- | --- |
| O=C1CCc2cc(OCCCCc3nnnn3C3CCCCC3)ccc2N1 [cilostazol] | least stimulatory | improve peak walking time | 2.00 | high incidence of side effects | – | – | – | – | – |
| recombinant fibroblast growth factor-2: recombinant fibroblast growth factor-2 of the TRAFFIC study | – | – | – | – | 1.17 | – | – | – | – |
| Del-1 protein: Developmentally regulated Endothelial Locus-1, an endothelial cell stimulating angiogenic protein (protein, UniProt O43854 24-480, looked up) EGF-like repeat and discoidin …: DICDPNPCENGGICLPGLADGSFSCECPDGFTDPNCSSVVEVASDEEEPTSAGPCTPNPCHNGGTCEISEAYRGDTFIGYVCKCPRGFNGIHCQHNINECEVEPCKNGGICTDLVANYSCECPGEFMGRNCQYKCSGPLGIEGGIISNQQITASSTHRALFGLQKWYPYYARLNKKGLINAWTAAENDRWPWIQINLQRKMRVTGVITQGAKRIGSPEYIKSYKIAYSNDGKTWAMYKVKGTNEDMVFRGNIDNNTPYANSFTPPIKAQYVRLYPQVCRRHCTLRMELLGCELSGCSEPLGMKSGHIQDYQITASSIFRTLNMDMFTWEPRKARLDKQGKVNAWTSGHNDQSQWLQVDLLVPTKVTGIITQGAKDFGHVQFVGSYKLAYSNDGEHWTVYQDEKQRKDKVFQGNFDNDTHRKNVIDPPIYARHIRILPWSWYGRITLRSELLGCTEEE | least stimulatory | – | – | – | – | increased vascular perfusion | substantially less cellular response | light to moderate vessel growth | high cellularity |
